Results published in the supplement of paper PMC11451515.

System: P12-Ichikawa
Assay: cell viability relative to DMSO control; higher = less cytotoxic
Conditions: 48 h
Method in brief: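 In 1536-well plates, 5 μl of leukemia cells were seeded per well: 500 cells/well for NOMO1 or SEM and 1000 cells/well for P12-Ichikawa. Each line had first been adapted for at least four passages in each medium. Library compounds in DMSO were pin-dosed at 11 threefold concentrations between 47 μM and 0.79 nM, and CellTiter-Glo One luminescence was read after 48 h at 37°C. Viability is a per-plate percentage relative to DMSO wells, with cell-free wells as background.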

[1] = HPLM + 10% dialyzed FBS, 0.000781 µM
[2] = HPLM + 10% dialyzed FBS, 0.00234 µM
[3] = HPLM + 10% dialyzed FBS, 0.00702 µM
[4] = HPLM + 10% dialyzed FBS, 0.0211 µM
[5] = HPLM + 10% dialyzed FBS, 0.0632 µM
[6] = HPLM + 10% dialyzed FBS, 0.19 µM
[7] = HPLM + 10% dialyzed FBS, 0.569 µM
[8] = HPLM + 10% dialyzed FBS, 1.71 µM
[9] = HPLM + 10% dialyzed FBS, 5.12 µM
[10] = HPLM + 10% dialyzed FBS, 15.4 µM
[11] = HPLM + 10% dialyzed FBS, 46.1 µM
[12] = RPMI 5 mM glucose + 10% FBS, 0.000781 µM
[13] = RPMI 5 mM glucose + 10% FBS, 0.00234 µM
[14] = RPMI 5 mM glucose + 10% FBS, 0.00702 µM
[15] = RPMI 5 mM glucose + 10% FBS, 0.0211 µM
[16] = RPMI 5 mM glucose + 10% FBS, 0.0632 µM
[17] = RPMI 5 mM glucose + 10% FBS, 0.19 µM
[18] = RPMI 5 mM glucose + 10% FBS, 0.569 µM
[19] = RPMI 5 mM glucose + 10% FBS, 1.71 µM
[20] = RPMI 5 mM glucose + 10% FBS, 5.12 µM
[21] = RPMI 5 mM glucose + 10% FBS, 15.4 µM
[22] = RPMI 5 mM glucose + 10% FBS, 46.1 µM
[23] = RPMI 5 mM glucose + 10% dialyzed FBS, 0.000781 µM
[24] = RPMI 5 mM glucose + 10% dialyzed FBS, 0.00234 µM
[25] = RPMI 5 mM glucose + 10% dialyzed FBS, 0.00702 µM
[26] = RPMI 5 mM glucose + 10% dialyzed FBS, 0.0211 µM
[27] = RPMI 5 mM glucose + 10% dialyzed FBS, 0.0632 µM
[28] = RPMI 5 mM glucose + 10% dialyzed FBS, 0.19 µM
[29] = RPMI 5 mM glucose + 10% dialyzed FBS, 0.569 µM
[30] = RPMI 5 mM glucose + 10% dialyzed FBS, 1.71 µM
[31] = RPMI 5 mM glucose + 10% dialyzed FBS, 5.12 µM
[32] = RPMI 5 mM glucose + 10% dialyzed FBS, 15.4 µM
[33] = RPMI 5 mM glucose + 10% dialyzed FBS, 46.1 µM

Compound	cell viability [1] [%]	cell viability [2] [%]	cell viability [3] [%]	cell viability [4] [%]	cell viability [5] [%]	cell viability [6] [%]	cell viability [7] [%]	cell viability [8] [%]	cell viability [9] [%]	cell viability [10] [%]	cell viability [11] [%]	cell viability [12] [%]	cell viability [13] [%]	cell viability [14] [%]	cell viability [15] [%]	cell viability [16] [%]	cell viability [17] [%]	cell viability [18] [%]	cell viability [19] [%]	cell viability [20] [%]	cell viability [21] [%]	cell viability [22] [%]	cell viability [23] [%]	cell viability [24] [%]	cell viability [25] [%]	cell viability [26] [%]	cell viability [27] [%]	cell viability [28] [%]	cell viability [29] [%]	cell viability [30] [%]	cell viability [31] [%]	cell viability [32] [%]	cell viability [33] [%]
CCc1ccc(C(=O)Nc2cc(CN3CCN(C)CC3)cc(C(F)(F)F)c2)cc1C#Cc1cnc2ccnn2c1	126	118	114	121	120	124	118	117	112	102	88.2	119	122	134	113	124	116	113	123	106	102	87.3	130	118	121	113	111	119	107	108	104	99.1	83.8
O=C([O-])[C@H](CC(=O)N1C[C@H]2CCCC[C@H]2C1)Cc1ccccc1	107	118	120	129	123	125	125	119	131	130	134	114	129	122	129	134	131	131	131	137	139	142	113	122	126	134	123	127	129	122	135	131	129
C/C(=C\c1csc(C)n1)[C@@H]1C[C@@H]2O[C@@H]2CCC[C@H](C)[C@H](O)[C@@H](C)C(=O)C(C)(C)[C@@H](O)CC(=O)O1	37.2	25.2	25	26.8	27.1	24.6	23.9	25.2	21.1	21.5	22.6	28.8	14.8	19.1	20.3	20	20.6	21.6	20.8	17.4	18.1	19.3	67.2	27.9	33.6	27.2	34.7	33.1	33.7	31.4	29.1	31.3	35.9
Cn1cc(-c2cnn3c(N)c(Br)c([C@@H]4CCCNC4)nc23)cn1	96.1	102	99.5	97.5	102	99.7	91.3	86.4	16.8	5.55	6.43	91.6	98.8	94	100	93.4	96.5	93.8	77.3	13.1	3.15	3.91	86.9	103	95.9	95.1	89.8	99	90.2	77.3	12.2	4.05	5.37
C[C@H]1[C@H](O)O[C@@H]2O[C@@]3(C)CC[C@H]4[C@H](C)CC[C@@H]1[C@@]24OO3	91.4	95	99.8	98.6	91.4	97.9	101	87.6	54.7	29.4	22.5	90.1	92.9	83.4	94	89.9	91.2	87.9	70.4	33.9	16.8	14.6	82.7	90.6	87.1	87.7	87.2	87	84	61.6	36.5	26.2	24.3
Cn1cnc(-c2cc3nccc(Oc4ccc(NC(=S)NC(=O)Cc5ccccc5)cc4F)c3s2)c1	79	85.6	77.3	92.7	91.4	91.5	94.1	87.8	83.9	71.8	15.2	80.9	82.9	80.5	87.1	84.7	85.2	87.1	92.6	82.7	58.5	7.61	80.4	87.6	83.1	91.8	96.9	93.7	85.6	95.9	82.6	66.3	15.4
Oc1cc2c(cc1O)C1c3ccc(O)c(O)c3OCC1(O)C2 (configuration not stated)	96.7	106	108	112	103	113	95.5	118	102	111	112	104	96.6	102	101	101	103	102	110	118	109	108	97.5	93.8	103	102	98.2	107	106	100	105	104	104
O=C(c1ccc(/C=C/c2n[nH]c3ccccc23)cc1)N1CCNCC1	94.8	101	98	99.4	111	102	108	9.55	13.2	12.2	19.6	92.6	90.8	100	91.3	101	107	102	13.5	16.9	16.3	19.5	91.2	95.8	86.5	104	99.7	98.3	100	25.3	29.6	25.8	31.2
O=C(Nc1ccc([N+](=O)[O-])cc1Cl)c1cc(Cl)ccc1O	95.3	105	98.6	102	107	106	105	88	46	12.9	24.7	92.2	90.9	96	92.9	104	106	102	71.6	33	17	26.3	81.5	92.7	81.4	91.9	87.2	88	94.2	69	31.4	32.1	5.22
CCCC(CCC)C(=O)[O-]	87.4	96.6	103	102	106	104	102	103	109	105	101	88.6	103	105	110	115	119	105	108	105	105	94.8	94.2	102	102	114	112	107	104	101	107	106	96.5
CC(C)(C)Cn1c(N)nc2ccc(-c3[nH]c(C(C)(C)C)nc3-c3ccc(F)cc3)nc21	92.1	96.3	92.3	96	87.2	78.7	90.1	78.9	91.5	85.3	85.4	95.4	83.8	78.3	90.6	86.4	94.1	83	81.2	77.9	95.5	89.1	85.8	83.4	85.4	84.5	86.1	89.1	83.6	84.1	77.9	83	81
CNC(=O)c1ccc(N2C(=S)N(c3ccc(C#N)c(C(F)(F)F)c3)C(=O)C2(C)C)cc1F	98.8	106	79.6	110	123	117	115	124	114	108	107	107	119	72	109	123	117	122	120	124	116	98.5	102	113	80.4	108	120	117	119	122	122	112	91.1
CC1(C)Cc2c(sc(NC(=S)NC(=O)c3ccccc3)c2C(=O)O)CO1	99.1	109	107	110	109	115	118	114	101	99.2	101	103	110	110	116	119	118	121	112	110	108	106	103	112	108	110	115	109	126	122	114	105	106
C[N+](C)(C)CC(=O)O.[Cl-]	86.5	92	93	92.6	93.7	87	98.2	89.8	99.3	88.2	99.1	86.4	94.4	90.9	94.7	91.8	91.5	98	91.5	94.1	98	93.7	81.8	87.4	85.4	86	91.1	82.4	90.7	88.1	82.9	90.4	81.7
